How the values were obtained:
[1] = biological target: human V2 Tango receptor (Homo sapiens, UniProt P30518); assay: Tango control, human V2 Tango receptor; assay type: cell-based; details: data not shown
[2] = test system: HTLA cells not expressing a Tango receptor; assay: Tango negative control, cells transfected with pEYFP-N1; assay type: cell-based, human

SMILES	effect on HTLA cells expressing the human V2 Tango receptor [1]	activity on HTLA cells not expressing a Tango receptor [2]
CN(C)CCCN1c2ccccc2Sc2ccc(Cl)cc21 [Chlorpromazine]	no effect	inactive
CCCN1CCC[C@@H]2Cc3n[nH]cc3C[C@H]21 [Quinpirole]	no effect	inactive

— publication PMC3197762 (Nature chemical biology, 2011)
